Read-outs that look alike come from different tables or passages of the source.
Columns and labels:
Assay type in all cases: in vivo
[1] = system: Alopecurus myosuroides (ALOMY); experiment: Pre-emergence herbicidal action against ALOMY; conditions: scored visually after about 3 weeks, 100% = plants have died
Text: (§1) Seeds of monocotyledonous and dicotyledonous weed plants and crop plants are placed in plastic or organic planting pots and covered with soil. The compounds of the invention, formulated in the form of wettable powders (WP) or as emulsion concentrates (EC), are then applied to the surface of the covering soil as aqueous suspension or emulsion with addition of 0.5% additive at a water application rate equivalent to 600 l/ha. After the treatment, the pots are placed in a greenhouse and kept under good growth conditions for the trial plants. After about 3 weeks, the effect of the preparations is scored visually in comparison with untreated controls as percentages. For example, 100% activity=the plants have died, 0% activity=like control plants.
(§2) Tables A1 to A13 below show the effects of selected compounds of the general formula (I) on various harmful plants and at an application rate corresponding to 320 g/ha or lower, which were obtained by the experimental procedure mentioned above. The appendices “a”, “b” and “c” give differentiation by dosage used with otherwise the same harmful plants tested.

[2] = system: Amaranthus retroflexus (AMARE); experiment: Pre-emergence herbicidal action against AMARE; conditions: visual scoring after about 3 weeks vs untreated controls
Text: as §1, §2

Avena fatua (AVEFA) [3] = experiment: Pre-emergence herbicidal action against AVEFA; conditions: visual scoring after about 3 weeks vs untreated controls
Text: as §1, §2

[4] = system: Echinochloa crus-galli (ECHCG); experiment: Pre-emergence herbicidal action against ECHCG
Text: as §1, §2

Lolium rigidum (LOLRI) [5] = experiment: Pre-emergence herbicidal action against LOLRI
Text: as §1, §2

[6] = system: Matricaria inodora (MATIN); experiment: Pre-emergence herbicidal action against MATIN
Text: as §1, §2

[7] = system: Polygonum convolvulus (POLCO); experiment: Pre-emergence herbicidal action against POLCO
Text: as §1, §2

Setaria viridis (SETVI) [8] = experiment: Pre-emergence herbicidal action against SETVI
Text: as §1, §2

[9] = system: Verconica persica (VERPE); experiment: Pre-emergence herbicidal action against VERPE; conditions: dosage 320 g/ha
Text: as §1, §2

Viola tricolor (VIOTR) [10] = experiment: Pre-emergence herbicidal action against VIOTR
Text: as §1, §2

[11] = system: Abutilon theophrasti (ABUTH); experiment: Post-emergence herbicidal action against ABUTH; conditions: 320 g/ha, visual rating about 3 weeks after treatment vs untreated controls (100% = plants have died, 0% = like control plants)
Protocol: (§3) Seeds of monocotyledonous and dicotyledonous weeds and crop plants are placed in sandy loam in plastic or organic planting pots, covered with soil and cultivated in a greenhouse under controlled growth conditions. 2 to 3 weeks after sowing, the test plants are treated at the one-leaf stage. The compounds of the invention, formulated in the form of wettable powders (WP) or as emulsion concentrates (EC), are then sprayed onto the green parts of the plants as aqueous suspension or emulsion with addition of 0.5% additive at a water application rate of 600 l/ha (converted). After the test plants have been kept in the greenhouse under optimum growth conditions for about 3 weeks, the activity of the preparations is rated visually in comparison to untreated controls. For example, 100% activity=the plants have died, 0% activity=like control plants.
(§4) Tables B1 to B13 below show the effects of selected compounds of the general formula (I) according to Table 1 on various harmful plants and at an application rate corresponding to 320 g/ha or lower, which were obtained by the experimental procedure mentioned above. The appendices “a”, “b” and “c” give differentiation by dosage used with otherwise the same harmful plants tested.

[12] = system: Alopecurus myosuroides (ALOMY); experiment: Post-emergence herbicidal action against ALOMY; conditions: visual rating about 3 weeks after treatment vs untreated controls (100% = plants have died, 0% = like control plants)
Protocol: as §3, §4

[13] = system: Amaranthus retroflexus (AMARE); experiment: Post-emergence herbicidal action against AMARE
Protocol: as §3, §4

Avena fatua (AVEFA) [14] = experiment: Post-emergence herbicidal action against AVEFA; conditions: visual rating about 3 weeks after treatment
Protocol: as §3, §4

[15] = system: Echinochloa crus-galli (ECHCG); experiment: Post-emergence herbicidal action against ECHCG
Protocol: as §3, §4

Lolium rigidum (LOLRI) [16] = experiment: Post-emergence herbicidal action against LOLRI
Protocol: as §3, §4

[17] = system: Pharbitis purpurea (PHBPU); experiment: Post-emergence herbicidal action against PHBPU
Protocol: as §3, §4

[18] = system: Polygonum convolvulus (POLCO); experiment: Post-emergence herbicidal action against POLCO; conditions: dosage 320 g/ha
Protocol: as §3, §4

Setaria viridis (SETVI) [19] = experiment: Post-emergence herbicidal action against SETVI
Protocol: as §3, §4

[20] = system: Verconica persica (VERPE); experiment: Post-emergence herbicidal action against VERPE
Protocol: as §3, §4

Viola tricolor (VIOTR) [21] = experiment: Post-emergence herbicidal action against VIOTR; conditions: 320 g/ha
Protocol: as §3, §4

Oryza sativa (ORYSA) = conditions: crop plant compatibility, 80 g/ha, effect in comparison to untreated controls
Protocol: as §3
(§5) The observed effects on selected crop plants are reported here in comparison to the untreated controls (values in %). The appendices “a”, “b” and “c” give differentiation by dosage used with otherwise the same crop plants tested.

Zea mays (ZEAMX) = conditions: for Post-emergence action against ZEAMX in %: crop plant compatibility, effect vs untreated controls
Protocol: as §3, §5

[22] = system: Pharbitis purpurea (PHBPU); experiment: Pre-emergence herbicidal action against PHBPU; conditions: dosage 320 g/ha
Text: as §1, §2

[23] = 320 g/ha, visual rating about 3 weeks after treatment
[24] = 80 g/ha, visual rating about 3 weeks after treatment vs untreated controls (100% = plants have died, 0% = like control plants)

SMILES	Pre-emergence action against ALOMY ([1]; 80 g/ha) [%]	Pre-emergence action against ALOMY ([1]; 320 g/ha) [%]	Pre-emergence action against AMARE in % ([2]; 80 g/ha) [%]	Pre-emergence action against AMARE in % ([2]; 320 g/ha) [%]	Pre-emergence action against AVEFA in % (Avena fatua (AVEFA) [3]; 320 g/ha) [%]	Pre-emergence action against ECHCG in % ([4]; dosage 320 g/ha) [%]	Pre-emergence action against LOLRI in % (Lolium rigidum (LOLRI) [5]; dosage 80 g/ha) [%]	Pre-emergence action against LOLRI in % (Lolium rigidum (LOLRI) [5]; dosage 320 g/ha) [%]	Pre-emergence action against MATIN in % ([6]; dosage 320 g/ha) [%]	Pre-emergence action against POLCO in % ([7]; dosage 320 g/ha) [%]	Pre-emergence action against SETVI in % (Setaria viridis (SETVI) [8]; dosage 320 g/ha) [%]	Pre-emergence action against VERPE in % [9] [%]	Pre-emergence action against VIOTR in % (Viola tricolor (VIOTR) [10]; 320 g/ha, Viola tricolor) [%]	Pre-emergence action against VIOTR in % (Viola tricolor (VIOTR) [10]; dosage 80 g/ha) [%]	Post-emergence action against ABUTH in % [11] [%]	Post-emergence action against ALOMY in % ([12]; 80 g/ha) [%]	Post-emergence action against ALOMY in % ([12]; 320 g/ha) [%]	Post-emergence action against AMARE in % [13, 23] [%]	Post-emergence action against AVEFA in % (Avena fatua (AVEFA) [14]; 80 g/ha) [%]	Post-emergence action against AVEFA in % (Avena fatua (AVEFA) [14]; 320 g/ha) [%]	other results
C[C@@H](Oc1nn(-c2nc(F)ccc2F)c(-c2ccc(F)nc2)c1Br)C(=O)O [Example I-333]	90	100	90	100	90	90	80	100	90	90	90	100	100	100	80	90	90	80	80	90	Pre-emergence action against AVEFA in % (Avena fatua (AVEFA) [3]; 80 g/ha): 80%; Pre-emergence action against MATIN in % ([6]; dosage 80 g/ha): 80%; Pre-emergence action against POLCO in % ([7]; dosage 80 g/ha): 90%; Post-emergence action against ECHCG in % ([15]; dosage 80 g/ha): 80%; Post-emergence action against ECHCG in % ([15]; dosage 320 g/ha): 90%; Post-emergence action against LOLRI in % (Lolium rigidum (LOLRI) [16]; dosage 320 g/ha): 90%; Post-emergence action against PHBPU in % ([17]; dosage 80 g/ha): 80%; Post-emergence action against PHBPU in % ([17]; dosage 320 g/ha): 90%; Post-emergence action against POLCO in % [18]: 80%; Post-emergence action against SETVI in % (Setaria viridis (SETVI) [19]; dosage 320 g/ha): 80%; Post-emergence action against VERPE in % ([20]; 320 g/ha, VERPE): 90%; Post-emergence action against VIOTR in % (Viola tricolor (VIOTR) [21]): 80%; Post-emergence action against ORYSA in % (Oryza sativa (ORYSA)): 20%
CCOC(=O)[C@@H](C)Oc1nn(-c2ncccc2F)c(-c2ccc(F)nc2)c1F [Example I-320]		90	80	90	90	90		100	80	90	90		100		80		100	80		80	Post-emergence action against AMARE in % [13, 24]: 80%; Post-emergence action against ECHCG in % ([15]; dosage 320 g/ha): 90%; Post-emergence action against LOLRI in % (Lolium rigidum (LOLRI) [16]; dosage 320 g/ha): 90%; Post-emergence action against PHBPU in % ([17]; dosage 320 g/ha): 80%; Post-emergence action against POLCO in % [18]: 80%; Post-emergence action against SETVI in % (Setaria viridis (SETVI) [19]; dosage 320 g/ha): 90%; Post-emergence action against VERPE in % ([20]; 320 g/ha, VERPE): 90%; Post-emergence action against VIOTR in % (Viola tricolor (VIOTR) [21]): 80%; Post-emergence action against ORYSA in % (Oryza sativa (ORYSA)): 0%; Post-emergence action against ZEAMX in % (Zea mays (ZEAMX); 80 g/ha): 0%; Post-emergence action against ZEAMX in % (Zea mays (ZEAMX); 320 g/ha): 20%
CCOC(=O)COc1nn(-c2ncccc2F)c(-c2ccc(F)nc2)c1C1CC1 [Example I-40]	100	100	80	100	100	100	90	100		80	100	100	100	90		100			80		Pre-emergence action against ECHCG in % ([4]; dosage 80 g/ha): 90%; Pre-emergence action against PHBPU in % [22]: 80%; Pre-emergence action against SETVI in % (Setaria viridis (SETVI) [8]; dosage 80 g/ha): 100%; Post-emergence action against AMARE in % [13, 24]: 80%; Post-emergence action against ECHCG in % ([15]; dosage 80 g/ha): 90%; Post-emergence action against LOLRI in % (Lolium rigidum (LOLRI) [16]; dosage 80 g/ha): 90%; Post-emergence action against PHBPU in % ([17]; dosage 80 g/ha): 80%; Post-emergence action against SETVI in % (Setaria viridis (SETVI) [19]; dosage 80 g/ha): 80%; Post-emergence action against VERPE in % ([20]; dosage 80 g/ha): 80%; Post-emergence action against ZEAMX in % (crop plant compatibility) (Zea mays (ZEAMX); 20 g/ha, ZEAMX, effect in comparison to untreated controls): 0%; Post-emergence action against ZEAMX in % (Zea mays (ZEAMX); 80 g/ha): 20%

Source: patent US20240041042A1, “1-(PYRIDYL)-5-AZINYLPYRAZOLE DERIVATIVES, AND THEIR USE FOR CONTROL OF UNDESIRED PLANT GROWTH” (Bayer Aktiengesellschaft, priority 2020, published 2024)
